Laboratory results as given in patent US5270148A, “Processing solution for silver halide color photographic materials and method for processing the materials with the processing solution” (priority 1991, dated 1993).
Read-outs that look alike come from different tables or passages of the source. One block for each molecule: values may come before it.

Experiments:
[1] = oxidation reduction potential of aminopolycarboxylic acid ferric complex salts (bleaching agents); format: physicochemical; settings: vs. NHE, pH = 6
Excerpt: Then, practical examples of the aminopolycarboxylic acid ferric complex salt in this invention are illustrated below together with their oxidation reduction potentials, but the bleaching agents for use in this invention are not limited to these compounds.
The oxidation reduction potential of the bleaching agent is defined as the oxidation reduction potential obtained by the method described in Transactions of the Faraday Society, Vol. 55, (1959), pages 1312-1313.

[2] = acid dissociation constant pKa of secondary amines of formula (II); settings: in water at room temperature (about 25° C.)
[3] = Example 3: turbidity of concentrated stabilizing replenisher after passage of time; format: physicochemical; design: key to Turbidity after Passage of Time: E: Neither turbidity nor precipitation.; G: Turbidity occurred very slightly.; M: Slightly precipitation formed at the bottom of the vessel in addition to turbidity.; B: Precipitation layer of 5 mm or more formed on the bottom of the vessel; settings: 40° C.
Experimental: One liter of the concentrated stabilizing replenisher shown below was prepared and filled in a 1.2 liter polyethylene bottle.
After allowing to stand the concentrated solution thus-prepared at 40° C. for 1 month or 6 months, the turbidity of the solution was visually observed.
In addition, the evaluation standards of the turbidity of the solution with the passage of time in Table C are as follows.

[4] = Example 4: image storage stability (magenta fading), color reversal material; settings: 80° C. for 3 days
Experimental: Sample 401 prepared was slit in 35 mm width, and after perforated in the same format as films on the market and applying thereto a uniform light exposure, the sample was processed according to the following processing steps using an hanging type automatic processor.
The image storage stability test was carried out under the condition of 80° C. for 3 days. Also, in a bright place, the presence of unevenness of the sample was visually observed.

[5] = Example 1: evaluation of image storage stability (magenta fading), stabilizing solution; settings: for M Fading: 2 weeks 60° C. 20% RH
Experimental: In addition, the time for the stabilization step was changed by changing the length of the processing rack.
Thereafter, the sample was allowed to stand for 2 weeks under the conditions of 60° C. 20% RH and then the magenta density was measured again. Thus, magenta fading was evaluated by the reduced magenta density in the density stage that the magenta density after processing was 1.5. (M fading)

[6] = Example 6: image storage stability (magenta fading), image stabilizer in conditioning bath
Experimental: The same processing steps as in Example 4 were carried out except for changing the conditioning solution and the stabilizing solution as follows.
In this case, the time for the final stabilizing step was one minute and the time for the conditioning step was changed as shown in Table E in the processing.
By using the same method as in Example 1, the image storage stability of the processed film obtained and the vapor pressure of formaldehyde were evaluated.

[7] = Example 2: fading of the magenta density at intermediate density portion; settings: formaldehyde 4.0 mmol, 2 weeks 60° C., 70% RH
Experimental: The following processing steps were carried out using the following processing solutions and a cine type automatic processor.
According to a sample, fading of the magenta density at the intermediate density portion and the occurrence of yellow stain at the minimum density portion were observed.

human body = settings: cited from earlier work
[8] = water
[9] = 5 mmol/l, stabilization time 10 sec.
[10] = 5 mmol/l, stabilization time 20 sec.
[11] = 5 mmol/l, stabilization time 60 sec.
[12] = 3 mmol/l, time of conditioning bath 40 sec.
[13] = 3 mmol/l, time of conditioning bath 90 sec.
[14] = 3 mmol/l, time of conditioning bath 120 sec.
[15] = 27 mmol/l, stabilization time 10 sec.
[16] = 27 mmol/l, stabilization time 20 sec.
[17] = 27 mmol/l, stabilization time 60 sec.
[18] = 13 mmol/l, time of conditioning bath 40 sec.
[19] = 13 mmol/l, time of conditioning bath 90 sec.
[20] = 13 mmol/l, time of conditioning bath 120 sec.

Molecule: 1,3-Propylenediaminetetraacetic Acid Ferric Complex Salt [compound 7]
Oxidation Reduction Potential [1]: 250 mV

Molecule: 1,4-Butylenediaminetetraacetic Acid Ferric Salt [compound 4]
Oxidation Reduction Potential [1]: 230 mV

Molecule: CCCCNC [Compound 11-5]
pKa [2]: 10.9

Molecule: OCCN(CCO)Cn1cccn1 [Compound A-1]
Turbidity after Passage of Time ([3]; 0.5 mol, 1 month): G
Turbidity after Passage of Time ([3]; 0.5 mol, 6 months): M
M Fading ([4]; 6 mmol/l): 0.04

Molecule: Cc1ccn(CN(CCO)CCO)n1 [Compound A-11]
M Fading [5, 9]: 0.10
M Fading [5, 10]: 0.05
M Fading [5, 11]: 0.00
M Fading [6, 12]: 0.01
M Fading [6, 13]: 0.00
M Fading [6, 14]: 0.00

Molecule: OCCN(CCO)Cn1cncn1 [Compound A-12]
Turbidity after Passage of Time ([3]; 0.5 mol, 1 month): G
Turbidity after Passage of Time ([3]; 0.5 mol, 6 months): M

Molecule: c1cnn(CN2CCOCC2)c1 [Compound A-16]
M Fading [5, 9]: 0.02
M Fading [5, 10]: 0.00
M Fading [5, 11]: 0.00
M Fading ([4]; 6 mmol/l): 0.05

Molecule: c1cnn(CN2CCCCC2)c1 [Compound A-17]
M Fading [5, 9]: 0.02
M Fading [5, 10]: 0.01
M Fading [5, 11]: 0.00

Molecule: c1cnn(CN2CCN(Cn3cccn3)CC2)c1 [Compound A-22]
M Fading [5, 9]: 0.01
M Fading [5, 10]: 0.00
M Fading [5, 11]: 0.00
Turbidity after Passage of Time ([3]; 0.5 mol, 1 month): G
Turbidity after Passage of Time ([3]; 0.5 mol, 6 months): M
M Fading ([4]; 6 mmol/l): 0.00
M Fading [6, 12]: 0.01
M Fading [6, 13]: 0.00
M Fading [6, 14]: 0.00

Molecule: c1ncn(CN2CCN(Cn3cncn3)CC2)n1 [Compound A-23]
M Fading [5, 9]: 0.00
M Fading [5, 10]: 0.00
M Fading [5, 11]: 0.00
Turbidity after Passage of Time ([3]; 0.5 mol, 1 month): G
Turbidity after Passage of Time ([3]; 0.5 mol, 6 months): M
M Fading ([4]; 6 mmol/l): 0.00
M Fading [6, 12]: 0.00
M Fading [6, 13]: 0.00
M Fading [6, 14]: 0.00

Molecule: c1ncn(CN2CCOCC2)n1 [Compound A-26]
M Fading [5, 9]: 0.03
M Fading [5, 10]: 0.01
M Fading [5, 11]: 0.01
M Fading ([4]; 6 mmol/l): 0.00

Molecule: OCCN1CCN(Cn2cccn2)CC1 [Compound A-32]
M Fading ([4]; 6 mmol/l): 0.00
M Fading [6, 12]: 0.01
M Fading [6, 13]: 0.01
M Fading [6, 14]: 0.01

Molecule: OCN1CCN(Cn2cncn2)CC1 [Compound A-45]
M Fading [5, 9]: 0.04
M Fading [5, 10]: 0.01
M Fading [5, 11]: 0.01
M Fading [6, 12]: 0.01
M Fading [6, 13]: 0.01
M Fading [6, 14]: 0.01

Molecule: c1nc[nH]n1 [Compound I-4]
M-Fading ([7]; formula (I) 4 mmol): 0.16
M-Fading ([7]; formula (I) 16 mmol): 0.17

Molecule: O=C1N(CO)CCN1CO [Dimethylolethyleneurea, reference compound]
Turbidity after Passage of Time ([3]; 0.3 mol, 1 month): M
Turbidity after Passage of Time ([3]; 0.3 mol, 6 months): B (Precipitation layer of 5 mm or more formed on the bottom of the vessel.)

Molecule: C=O [Formaldehyde, reference compound]
M Fading [5, 9]: 0.20
M Fading [5, 10]: 0.15
M Fading [5, 11]: 0.08
M Fading [5, 15]: 0.03
M Fading [5, 16]: 0.00
M Fading [5, 17]: 0.00
M-Fading ([7]; no formula (I) or (II) additive): 0.15
Turbidity after Passage of Time ([3]; 2.0 mol, 1 month): M
Turbidity after Passage of Time ([3]; 2.0 mol, 6 months): M
turbidity / precipitates on storage (in words) ([3]; concentrated stabilizing replenisher, 1 month or 6 months): white floatings precipitates accumulated on the bottom of the vessel
M Fading [6, 12]: 0.11
M Fading [6, 13]: 0.00
M Fading [6, 14]: 0.00
M Fading [6, 18]: 0.03
M Fading [6, 19]: 0.00
M Fading [6, 20]: 0.00
allowable concentration in a working environment (human body; Japan Association of Industrial Health): ≤ 0.5 ppm
harm on inhalation (in words) (human body; human body): harmful for the human body

Molecule: C1N2CN3CN1CN(C2)C3 [Hexamethylenetetramine, reference compound]
M Fading [5, 9]: 0.30
M Fading [5, 10]: 0.31
M Fading [5, 11]: 0.30
M Fading [5, 15]: 0.28
M Fading [5, 16]: 0.27
M Fading [5, 17]: 0.28
fading inhibition effect (in words) ([5]; Table A): the fading inhibition effect is insufficient even when a large amount of the compound is used
M Fading ([4]; 6 mmol/l): 0.29
M Fading ([4]; 100 mmol/l): 0.10
M Fading [6, 12]: 0.25
M Fading [6, 13]: 0.22
M Fading [6, 14]: 0.10
M Fading [6, 18]: 0.09
M Fading [6, 19]: 0.05
M Fading [6, 20]: 0.02

Molecule: CNC [II-1]
pKa [2]: 10.9

Molecule: CCNC[Si](C)(C)C [II-13]
pKa [2]: 11.1

Molecule: C1COCCN1 [II-21]
M-Fading ([7]; formula (II) 4 mmol): 0.04

Molecule: C1CNCCN1 [II-22]
M-Fading ([7]; formula (II) 2 mmol): 0.03
M-Fading ([7]; formula (II) 4 mmol): 0.02

Molecule: C1NCC2CNCC1C2 [II-27]
pKa [2]: 11.3

Molecule: Diethylenetriaminepentaacetic Acid Ferric Complex Salt [compound 9]
Oxidation Reduction Potential [1]: 80 mV

Molecule: Glycol Ether Diaminetetraacetic Acid Ferric Complex Salt [compound 6]
Oxidation Reduction Potential [1]: 240 mV

Molecule: Iminodiacetic Acid Ferric Complex Salt [compound 3]
Oxidation Reduction Potential [1]: 210 mV

Molecule: Methyliminodiacetic Acid Ferric Complex Salt [compound 2]
Oxidation Reduction Potential [1]: 200 mV

Molecule: N-(2-Acetamido)iminodiacetic Acid Ferric Complex Salt [compound 1]
Oxidation Reduction Potential [1]: 180 mV

Other lines, results leading:

pKa [8]: 9.3
Molecule: C=CCNCC=C [II-3]

pKa [2]: 10.1
Molecule: CCNCCO [II-6]

pKa [2]: 9.8
Molecule: CNCCO [II-8]

pKa [2]: 9.6
Molecule: CNCCCCO [II-9]

pKa [2]: 8.3
Molecule: CCCCNCCC#N [II-10]

pKa [2]: 8.0
Molecule: CC(C)NCCC#N [II-11]

pKa [2]: 8.8
Molecule: CNCC(=O)N(C)C [II-12]

pKa [2]: 9.9
Molecule: CCN(CC)CCNC [II-14]

pKa [2]: 9.9
Molecule: CNCCNC [II-15]

pKa [2]: 10.2
Molecule: CCNCCNCC [II-16]

pKa [2]: 9.2
Molecule: OCCNCCNCCO [II-17]

pKa [2]: 10.6
Molecule: CCNCCCNCC [II-18]

pKa [2]: 10.9
Molecule: C1CCCNCC1 [II-23]

pKa [2]: 10.8
Molecule: CC1CCNCC1 [II-24]

pKa [2]: 9.7
Molecule: CC1CNC(C)CN1 (stereo not drawn) [II-25]

pKa [2]: 8.3
Molecule: CCOC(=O)N1CCNCC1 [II-26]
